Read-outs that look alike come from different tables or passages of the source.
Columns and labels:
[1] = molecular target: glucosylceramide synthase (GCS) (Homo sapiens (Human), UniProt Q16739); experiment: Evaluation of inhibitory activities against GCS (enzyme reaction with A549 cell lysate, NBD C6-ceramide, HPLC fluorescence); type: biochemical; details: GCS activity in A549 cell lysate, 37° C. for 90 minutes
Method: Ibiglustat, known as a GCS inhibitor, was used as a control.
After the cells attached to the culture dish were washed with phosphate buffered saline (PBS), the cells were scraped off with a cell scraper and then centrifuged (4000 rpm, 3 min, 4° C.) to collect the cells in a 50 ml tube. The cell pellets were suspended in a lysis buffer (50 mM HEPES, pH 7.3, containing 1× the protease/phosphatase inhibitor cocktail), lysed by sonication, and then the lysate was centrifuged (13000 rpm, 10 min, 4° C.). The obtained supernatant was used for the quantitative analysis of proteins. The amount of proteins was measured using the BCA protein assay kit, using bovine serum albumin as a standard.
Enzymatic reactions were initiated by sequentially adding the following reaction materials to a 96 deep-well plate. Thereafter, the enzymatic reactions were performed at 37° C. for 90 minutes.
The enzymatic reactions were stopped by adding 100 μl of chloroform/methanol (2:1, v/v). After vortexing for 15 seconds, each mixture was centrifuged (4000 rpm, 10 min, 18° C.). The lower layer (50 μl) was transferred to a new 96 deep-well plate and dried with a reduced concentrator.
Data analysis was performed by the following equations. % Area (Sample)=Area (GlcCer)/[Area (Cer)+Area (GlcCer)]×100 % GCS activity=[Area(Sample)−Area(ibiglustat)]/[Area(DMSO)−Area(ibiglustat)]×100

GM1 production = experiment: cells; type: cell-based

Chain of glucosylceramide synthase (GCS) (Q16739 whole entry, looked up): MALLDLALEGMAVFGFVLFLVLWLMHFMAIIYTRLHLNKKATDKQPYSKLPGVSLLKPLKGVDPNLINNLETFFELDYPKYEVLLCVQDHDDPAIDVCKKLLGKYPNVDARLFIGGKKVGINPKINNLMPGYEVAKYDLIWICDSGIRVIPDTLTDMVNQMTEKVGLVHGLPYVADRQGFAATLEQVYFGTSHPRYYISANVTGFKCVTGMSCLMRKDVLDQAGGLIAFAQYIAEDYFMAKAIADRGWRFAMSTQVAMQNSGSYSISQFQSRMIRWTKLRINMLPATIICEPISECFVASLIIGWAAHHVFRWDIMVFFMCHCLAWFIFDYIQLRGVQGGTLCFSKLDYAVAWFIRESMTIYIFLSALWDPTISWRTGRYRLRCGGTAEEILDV

Compound	IC50 [1] [nM]	IC50 (GM1 production; Homo sapiens, Jurkat, 72 h) [nM]	IC50 (GM1 production; read-out: IC50) [nM]
O=C(NC1c2ccc(-c3ccc(OC(F)(F)F)cc3)cc2CCC12CC2)O[C@@H]1CN2CCC1CC2 (stereo partly drawn) [Example 189, (S)-quinuclidin-3-yl (6′-(4-(trifluoromethoxy)phenyl)-3′,4′-dihydro-1′H-spiro[cyclopropane-1,2′-naphthalen]-1′-yl)carbamate]	18.9	25.1	
CCc1ccc(-c2ccc3c(c2)CCCC3NC(=O)O[C@@H]2CN3CCC2CC3)cc1 (stereo partly drawn) [Example 31, (S)-quinuclidin-3-yl (6-(4-ethylphenyl)-1,2,3,4-tetrahydronaphthalen-1-yl)carbamate]	6.58	2.92	
COCOc1ccccc1-c1ccc2c(c1)CCC(C)(C)C2NC(=O)O[C@@H]1CN2CCC1CC2 (stereo partly drawn) [Example 115, (S)-quinuclidin-3-yl (6-(2-(methoxymethoxy)phenyl)-2,2-dimethyl-1,2,3,4-tetrahydronaphthalen-1-yl)carbamate]	1.17	0.56	
CC1(C)CCc2ccc(-c3ccc(F)cc3)cc2C1NC(=O)O[C@@H]1CN2CCC1CC2 (stereo partly drawn) [Example 151, (S)-quinuclidin-3-yl (7-(4-fluorophenyl)-2,2-dimethyl-1,2,3,4-tetrahydronaphthalen-1-yl)carbamate]	7.27	33.4	
COCOc1ccc(-c2ccc3c(c2)CCCC3NC(=O)O[C@@H]2CN3CCC2CC3)cc1 (stereo partly drawn) [Example 26, (S)-quinuclidin-3-yl (6-(4-(methoxymethoxy)phenyl)-1,2,3,4-tetrahydronaphthalen-1-yl)carbamate]	6.61	30.8	
CC1(C)CCc2cc(-c3ccc(F)c(F)c3F)ccc2C1NC(=O)O[C@@H]1CN2CCC1CC2 (stereo partly drawn) [Example 109, (S)-quinuclidin-3-yl (2,2-dimethyl-6-(2,3,4-trifluorophenyl)-1,2,3,4-tetrahydronaphthalen-1-yl)carbamate]	2.89	2.97	
CC(C)c1cccc(-c2ccc3c(c2)CCC(C)(C)C3NC(=O)O[C@@H]2CN3CCC2CC3)c1 (stereo partly drawn) [Example 129, (S)-quinuclidin-3-yl (6-(3-isopropylphenyl)-2,2-dimethyl-1,2,3,4-tetrahydronaphthalen-1-yl)carbamate]	2.08	1.3	
CCOc1cccc(-c2ccc3c(c2)CCC(C)(C)C3NC(=O)O[C@@H]2CN3CCC2CC3)c1 (stereo partly drawn) [Example 122, (S)-quinuclidin-3-yl (6-(3-ethoxyphenyl)-2,2-dimethyl-1,2,3,4-tetrahydronaphthalen-1-yl)carbamate]	3.38	0.774	
COc1cccc(-c2ccc3c(c2)CCC(C)(C)C3NC(=O)O[C@@H]2CN3CCC2CC3)c1OC (stereo partly drawn) [Example 133, (S)-quinuclidin-3-yl (6-(2,3-dimethoxyphenyl)-2,2-dimethyl-1,2,3,4-tetrahydronaphthalen-1-yl)carbamate]	1.05	1	
CC(C)(C)c1ccc(-c2ccc3c(c2)CCC2(CC2)C3NC(=O)O[C@@H]2CN3CCC2CC3)cc1 (stereo partly drawn) [Example 225, (S)-quinuclidin-3-yl (6′-(4-(tert-butyl)phenyl)-3′,4′-dihydro-1′H-spiro[cyclopropane-1,2′-naphthalen]-1′-yl)carbamate]	6.55	22.4	
CCc1ccccc1-c1ccc2c(c1)CCCC2NC(=O)O[C@@H]1CN2CCC1CC2 (stereo partly drawn) [Example 41, (S)-quinuclidin-3-yl (6-(2-ethylphenyl)-1,2,3,4-tetrahydronaphthalen-1-yl)carbamate]	9.08	292	
COCCOc1cccc(-c2ccc3c(c2)CCCC3NC(=O)O[C@@H]2CN3CCC2CC3)c1 (stereo partly drawn) [Example 27, (S)-quinuclidin-3-yl (6-(3-(2-methoxyethoxy)phenyl)-1,2,3,4-tetrahydronaphthalen-1-yl)carbamate]	2.49	30.3	
COCOc1ccc(-c2ccc3c(c2)C(NC(=O)O[C@@H]2CN4CCC2CC4)C2(CC3)CC2)cc1 (stereo partly drawn) [Example 185, (S)-quinuclidin-3-yl (7′-(4-(methoxymethoxy)phenyl)-3′,4′-dihydro-1′H-spiro[cyclopropane-1,2′-naphthalen]-1′-yl)carbamate]	14.8	73	
CC1(C)CCc2ccc(-c3cccc(Cl)c3)cc2C1NC(=O)O[C@@H]1CN2CCC1CC2 (stereo partly drawn) [Example 156, (S)-quinuclidin-3-yl (7-(3-chlorophenyl)-2,2-dimethyl-1,2,3,4-tetrahydronaphthalen-1-yl)carbamate]	19.6	132	
CC1(C)CCc2ccc(-c3ccc(OC(F)F)cc3)cc2C1NC(=O)O[C@@H]1CN2CCC1CC2 (stereo partly drawn) [Example 164, (S)-quinuclidin-3-yl (7-(4-(difluoromethoxy)phenyl)-2,2-dimethyl-1,2,3,4-tetrahydronaphthalen-1-yl)carbamate]	9.23	26.1	
O=C(NC1CCCc2cc(-c3ccccc3OC(F)(F)F)ccc21)O[C@@H]1CN2CCC1CC2 (stereo partly drawn) [Example 12, (S)-quinuclidin-3-yl (6-(2-(trifluoromethoxy)phenyl)-1,2,3,4-tetrahydronaphthalen-1-yl)carbamate]	9.28	19.6	
O=C(NC1CCCc2cc(-c3ccccc3F)ccc21)O[C@@H]1CN2CCC1CC2 (stereo partly drawn) [Example 9, (S)-quinuclidin-3-yl (6-(2-fluorophenyl)-1,2,3,4-tetrahydronaphthalen-1-yl)carbamate]	2.65	41.3	
CC(C)c1ccc(-c2ccc3c(c2)CCCC3NC(=O)O[C@@H]2CN3CCC2CC3)cc1 (stereo partly drawn) [Example 34, (S)-quinuclidin-3-yl (6-(4-isopropylphenyl)-1,2,3,4-tetrahydronaphthalen-1-yl)carbamate]	6.1	298	
COc1cc2c(cc1-c1ccnc(OC(C)(C)C)c1)CCC(C)(C)C2NC(=O)O[C@@H]1CN2CCC1CC2 (stereo partly drawn) [Example 237, (S)-quinuclidin-3-yl (6-(2-(tert-butoxy)pyridin-4-yl)-7-methoxy-2,2-dimethyl-1,2,3,4-tetrahydronaphthalen-1-yl)carbamate]	1.84	18.8	
Cc1cccc(-c2ccc3c(c2)C(NC(=O)O[C@@H]2CN4CCC2CC4)CCC3)c1 (stereo partly drawn) [Example 85, (S)-quinuclidin-3-yl (7-(m-tolyl)-1,2,3,4-tetrahydronaphthalen-1-yl)carbamate]	74.3	192	
O=C(NC1c2cc(-c3ccc(Cl)cc3)ccc2CCC12CC2)O[C@@H]1CN2CCC1CC2 (stereo partly drawn) [Example 172, (S)-quinuclidin-3-yl (7′-(4-chlorophenyl)-3′,4′-dihydro-1′H-spiro[cyclopropane-1,2′-naphthalen]-1′-yl)carbamate]	4.83	67.9	
COc1ccccc1-c1ccc2c(c1)CCCC2NC(=O)O[C@@H]1CN2CCC1CC2 (stereo partly drawn) [Example 48, (S)-quinuclidin-3-yl (6-(2-methoxyphenyl)-1,2,3,4-tetrahydronaphthalen-1-yl)carbamate]	3.02	362	
CC1(C)CCc2ccc(-c3ccccc3Cl)cc2C1NC(=O)O[C@@H]1CN2CCC1CC2 (stereo partly drawn) [Example 160, (S)-quinuclidin-3-yl (7-(2-chlorophenyl)-2,2-dimethyl-1,2,3,4-tetrahydronaphthalen-1-yl)carbamate]	14.5	67.7	
CCc1cccc(-c2ccc3c(c2)CCCC3NC(=O)O[C@@H]2CN3CCC2CC3)c1 (stereo partly drawn) [Example 38, (S)-quinuclidin-3-yl (6-(3-ethylphenyl)-1,2,3,4-tetrahydronaphthalen-1-yl)carbamate]	1.7	316	
COCCOc1ccc(-c2ccc3c(c2)CCC(C)(C)C3NC(=O)O[C@@H]2CN3CCC2CC3)cc1 (stereo partly drawn) [Example 110, (S)-quinuclidin-3-yl (6-(4-(2-methoxyethoxy)phenyl)-2,2-dimethyl-1,2,3,4-tetrahydronaphthalen-1-yl)carbamate]	0.64	0.29	
CC(C)Cc1ccc(-c2ccc3c(c2)CCC2(CC2)C3NC(=O)O[C@@H]2CN3CCC2CC3)cc1 (stereo partly drawn) [Example 224, (S)-quinuclidin-3-yl (6′-(4-isobutylphenyl)-3′,4′-dihydro-1′H-spiro[cyclopropane-1,2′-naphthalen]-1′-yl)carbamate]	1.53	6.7	
O=C(NC1CCCc2ccc(-c3cccc(F)c3)cc21)O[C@@H]1CN2CCC1CC2 (stereo partly drawn) [Example 58]	10.8		73.5
COc1cccc(-c2ccc3c(c2)CCC2(CC2)C3NC(=O)O[C@@H]2CN3CCC2CC3)c1 (stereo partly drawn) [Example 216, (S)-quinuclidin-3-yl (6′-(3-methoxyphenyl)-3′,4′-dihydro-1′H-spiro[cyclopropane-1,2′-naphthalen]-1′-yl) carbamate]	12.2		115
O=C(NC1c2cc(-c3ccccc3OC(F)(F)F)ccc2CCC12CC2)O[C@@H]1CN2CCC1CC2 (stereo partly drawn) [Example 182, (S)-quinuclidin-3-yl (7′-(2-(trifluoromethoxy)phenyl)-3′,4′-dihydro-1′H-spiro[cyclopropane-1,2′-naphthalen]-1′-yl)carbamate]	11.9	40.4	
O=C(NC1CCCc2cc(-c3cccc(F)c3F)ccc21)O[C@@H]1CN2CCC1CC2 (stereo partly drawn) [Example 19, (S)-quinuclidin-3-yl (6-(2,3-difluorophenyl)-1,2,3,4-tetrahydronaphthalen-1-yl)carbamate]	3.44	67.4	
